# Entries after “also recorded” stand apart in the source; their conditions may differ.
# What was measured:
# [1] = biological target: SHP2 (Mus musculus (Mouse), UniProt P35235); assay: Immune complex PTP assay on tissue lysates of inhibitor-treated MRL/lpr mice; assay type: in vivo; details: 7.5 mg/kg daily for 4 weeks, listed as SHP2 inhibitor
# Description: (§1) Briefly, female MRL/MpJ-fas lpr (MRL/lpr), MRL/Mpj and C57BL/6J mice were purchased from the Jackson Laboratory (Bar Harbor, Me.). For experiments, mice within each group were ip injected with either vehicle (DMSO) or the SHP2 inhibitor (7.5 mg/kg/per day). […] Body weight was measured daily and treatment dosage was adjusted accordingly. At the end of the treatment period, mice were sacrificed with CO2 exsanguination and SLE targeted organs were removed. For each mouse, spleen, kidney, and heart weight were calculated. In addition, total animal body weight and tibia length were measured. Peripheral blood/serum was also collected for use in the cytokine assays described below.
# PTP assays were conducted as previously described in Kontaridis et al., J Biol Chem. 2006; 281:6785-6792, using para-nitrophenyl phosphate (pNPP, obtained from Sigma) as substrate. […] Reactions were terminated with 0.2 N NaOH and phosphate release was determined by measuring A410. […]
# [2] = tested on: ERK and AKT signaling; assay: Immunoblot of ERK/AKT signaling in tissue lysates of inhibitor-treated MRL/lpr mice; assay type: in vivo, mouse; details: 7.5 mg/kg daily for 4 weeks
# Description: as §1
# Tissues (spleen, kidney, heart) isolated from either vehicle (DMSO) treated or SHP2 inhibitor treated WT C57/B16, MRL/MpJ, or MRL/lpr female mice were dissected, perfused in PBS, and immediately frozen in liquid N2. Whole-cell lysates were prepared by homogenizing the tissue in radioimmunoprecipitation (RIPA) buffer (25 mmol/l Tris-HCl [pH 7.4], 150 mmol/l NaCl, 0.1% SDS, 1% NP-40, 0.5% sodium deoxycholate, 5 mmol/l EDTA, 1 mmol/l NaF, 1 mmol/l sodium orthovanadate, and a protease cocktail) at 4° C., followed by clarification at 14,000 g. […] Bands were visualized with enhanced chemiluminescence and quantified by densitometry (developed by Wayne Rasband; ImageJ 1.41 software, http://rsbweb.nih.gov/ij/). […]
# [3] = tested on: MRL/lpr mice; assay: Longevity study; assay type: in vivo, mouse; details: SLE-prone MRL/lpr mice, 7.5 mg/kg/day ip from 11 weeks of age; listed as SHP2 inhibitor
# Description: Female MRL/lpr mice were used for a survival/longevity curve analysis. Mice either ip injected with vehicle (DMSO) or SHP2 inhibitor (7.5 mg/kg/each day) were followed beginning at 11 weeks of age to assess tolerance to the inhibitor and longevity/survival curve. The testing was terminated when the last mouse in the control group died, at 26 weeks.
# [4] = tested on: MRL/lpr mouse kidney immune cells; assay: Flow cytometry of immune cells infiltrating the kidney; assay type: in vivo; details: MRL/lpr mice vs vehicle
# Description: Kidney, spleen, lung, and axillary lymph nodes were excised from either vehicle or drug-treated mice, and single cell suspensions were obtained by teasing the organs through a nylon mesh. Briefly, kidneys were cut into small pieces and homogenized on a 70 μm nylon mesh in 5 ml of Hank's Balanced Salt Solution (HBSS) buffer. All of the homogenized tissues and cells were transferred to new 50 ml tubes and digested with collagenase type 4 (100 ug/ml) (Worthington Biochemical Corp., Freehold, N.J.) in HBSS for 30 minutes to 2 hours (37° C.) on a rotating shaker. After digestion, the cells were centrifuged at 2000 rpm for 10 minutes, and the kidney cell isolates were generated, which included infiltrated immune cell subsets.
# To identify immune cell subsets, isolated cells from tissues were immunostained with mouse antibodies targeted against CD3E (145-2C11, BioLegend, San Diego, Calif.), CD4 (GK1.5, BioLegend), CD8 (53-6.7, eBioscience, San Diego, Calif.), CD45 (30-F11, eBioscience), CD 19 (6125, BioLegend), CD11b (M1170, BioLegend), TCRαβ (H57-597, BioLegend), CD44 (IM7, BioLegend), B220 (RA3-6B2, B.D. […], BD Biosciences, San Jose Calif.), CD138 (281-2, BioLegend), CD38 (CD28.2, BioLegend), Gr-1 (RB6.805, eBioscience), CD62L (DREG-56, BioLegend), and CD25 (PC61, BioLegend) for 30 minutes at 4° C. Samples were acquired on a LSR II flow cytometer (BD Biosciences) and the percentage of each sub-population of cells (B, T, monocytes, macrophage and neutrophils) was assessed by FlowJo [version 7.2.2 (Tree Star)]. Total cell numbers were counted using a hemocytometer. Absolute cell numbers for each sub-population were calculated based on the percentage of each population.
# B cells, T cells, macrophage and neutrophils from the MRL/lpr inhibitor-treated and vehicle-treated mouse kidneys of Example 9 were isolated.
# SHP2, sequence (P35235 whole entry): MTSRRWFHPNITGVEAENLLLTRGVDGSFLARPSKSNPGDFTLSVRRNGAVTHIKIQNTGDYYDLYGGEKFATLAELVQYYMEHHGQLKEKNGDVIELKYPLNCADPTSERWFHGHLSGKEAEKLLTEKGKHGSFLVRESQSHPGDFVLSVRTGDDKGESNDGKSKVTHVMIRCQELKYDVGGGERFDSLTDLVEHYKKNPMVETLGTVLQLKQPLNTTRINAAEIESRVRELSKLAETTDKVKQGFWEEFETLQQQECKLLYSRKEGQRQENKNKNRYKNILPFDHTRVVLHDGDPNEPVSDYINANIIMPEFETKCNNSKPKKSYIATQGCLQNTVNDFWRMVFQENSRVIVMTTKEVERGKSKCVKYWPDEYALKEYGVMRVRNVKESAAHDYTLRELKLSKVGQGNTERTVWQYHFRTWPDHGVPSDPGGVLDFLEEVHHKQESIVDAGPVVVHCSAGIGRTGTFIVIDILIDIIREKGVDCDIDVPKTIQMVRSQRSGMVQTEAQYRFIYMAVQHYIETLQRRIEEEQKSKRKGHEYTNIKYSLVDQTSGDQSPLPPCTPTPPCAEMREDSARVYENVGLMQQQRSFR
smiles,measurement,setting,value
Cn1c(-c2cccc(NC(=O)C(=O)Nc3ccc(-c4ccsc4)cc3)c2)c(I)c2cc(C(=O)O)c(O)cc21 [11a-1],SHP2 activity in tissue lysates,[1],normalized SHP2 activity back to levels of WT; also recorded: normalize SHP2 activity
same,downstream ERK and AKT signaling in tissue lysates,[2],reversed aberrant downstream ERK and AKT signaling
same,lifespan / survival (Kaplan-Meier),[3],significantly increased lifespan; also recorded: increased longevity/survival effect
same,B cells in kidney,[4],no discernable differences
same,infiltrating T cells in the SLE kidney,[4],"significantly reducing the overall number of CD4, CD8, and double-negative T cells"
same,infiltrating neutrophils and macrophages in kidney,[4],significant reduction in numbers of infiltrating neutrophils and macrophages
